In assay [1] the test system is zebrafish embryo. The experiment in a line: zebrafish embryo phenotype (pigmentation, morphology). The format is in vivo.
The subject of a further assay is 158 GPCRs. The experiment in a line: Millipore GPCR profiling, agonist and antagonist activity. Type of assay: cell-based. As to conditions: 10 μM.
For assay [2], the system named is zebrafish embryo. The assay is described as follows: foxD3 in situ hybridization of neural crest progenitors. The following applies: in vivo. As to the method: In situ hybridization was performed as previously described (Westerfield, 2000). Zebrafish foxD3 probes were synthesized as previously described (Stewart et al., 2006).
To identify if neural crest progenitors were perturbed by OGM, foxD3 staining was performed. This identified no difference. […] The views on the right show a magnification of the indicated area, with arrows showing positive staining along the dorsal ridge of the embryo.

Another assay has as its system A2058 melanoma cell line. The assay is described as follows: scratch assay for migration, A2058. As to conditions: OGM 5 μM, EIPA 10 μM, 20 hours. Type of assay: cell-based, human. As to the method:
(§1) Cells were grown to confluence and the cells were denuded with a P200 tip. A medium change was done to add fresh medium, remove loose cells and add compounds OGM (5 μM) and EIPA (10 μM). The area of the scratch was observed 20 hours later.
(§2) Since there are numerous parallels are found between neural crest cells and cancer during migration, we examined whether OGM could inhibit the migration of cells in human melanoma cell lines (Oppitz et al., 2007; Schriek et al., 2005; Sinnberg et al., 2018). […] A2058, MeWo and WM115 cells were grown to confluence and a stripe of cells were denuded with a p200 pipette tip “scratch” and rinsed with PBS. Cells were treated with OGM or EIPA, or DMSO and incubated in low serum media. Imaging was done at 30 minutes after “scratch” and then 20 hours afterwards. Areas were then measured and normalized to the initial area.
(§3) Previous studies with the MV3 melanoma cell line have shown that disruption of proton efflux with EIPA inhibition of NHE1 can also reduce melanoma motility (Ludwig et al., 2013; Schneider et al., 2009; Stock et al., 2007, 2005; Stüwe et al., 2007). […] Although the expression of GPR68 and other proton-sensing receptors have been characterized in various skin cancers (Merkel cell carcinoma, dermatofibrosarcoma protuberans, atypical fibroxanthoma, and pleomorphic dermal sarcoma), expression in melanoma cell lines has not investigated (Nassios et al., 2019).

The next assay concerns MeWo melanoma cell line. The assay is described as follows: scratch assay for migration, MeWo. Type of assay: cell-based, human. The following applies: OGM 5 μM, EIPA 10 μM, 20 hours. As to the method:
as §1, §2, §3

A further assay concerns WM115 melanoma cell line. The assay is described as follows: scratch assay for migration, WM115. Type of assay: cell-based, human. As to conditions: OGM 5 μM, EIPA 10 μM, 20 hours. As to the method:
as §1, §2, §3

The next assay concerns WM115 cells. The experiment in a line: agarose drop assay (3D model of melanoma extravasation). As to conditions: 5 μM, 5 days. Type of assay: cell-based, human. As to the method: WM115 cells were trypsinized and resuspended at 100,000 cells per mL in low melt agarose. A 10 μl drop of the cell mixture was added to 12-well plate. After solidifying Normal culture media was added with either DMSO 0.5% or OGM 5 μM. The area around the agarose drop was visualized manually with light microscopy. The cells were incubated for 5 days and visualized. Cells outside of the agarose drop were visualized and quantitated.
FIG. 8A is a schematic of the agarose drop assay. WM115 cells were mixed into a low melt agarose solution and single 10 μL drops were seeded onto cell culture plates. After solidifying, media containing OGM (5 μM) or CTL (DMSO […]) was added and wells were observed 5 days later. Immediately after media addition no cells are on the plate outside of the agarose gel in CTL or OGM. Five days after seeding cells are observed outside of the gel (Black arrows) in CTL but not in OGM. […] Quantification on the number of cells that escaped from an average of 5 gel drop replicates. FIG. 8B through FIG. 8F show the cells after media addition. No cells are on the plate outside of the agarose gel in CTL or OGM. Five days after seeding, cells are observed outside of the gel (arrows) in CTL but not in OGM.

In a further assay the target is GPR68-GFP (Homo sapiens (Human), UniProt Q15743). The experiment in a line: SRE-luciferase assay, GPR68-GFP transfected HEK293T. As to conditions: 10 μM. The format is cell-based. As to the method: (§4) 12-well plates of cells were transfected with 1 μg DNA using Lipofectamine 3000 with sre:luciferase and either GFP, GPR68-GFP or 336X-GFP. After 3 days, these cells were then lysed, and cell extracts were subjected to Steady-Glo luciferase assay (Promega™) according to the manufacturer's instructions. The results were normalized to cell titer, as determined using Cell Titer-Glo luminescence assay (Promega™).
(§5) Loss of internalization can indicate loss of activity or loss of the ability to internalize through beta-arrestin. […] Compared to GFP controls, GPR68-GFP and 336X-GFP transfected cells had higher levels of activity. (n=3 biological replicates done in triplicate). Furthermore, the activity of the truncation variant was still inhibited by OGM. […]

A further assay addresses 336X-GFP (Homo sapiens (Human), UniProt Q15743). The assay is described as follows: SRE-luciferase assay, 336X-GFP truncation variant transfected HEK293T. The format is cell-based. The following applies: 10 μM. As to the method:
as §4
A deletion between amino acid 336 and the beginning of GFP was generated from the MCSV:GPR68-GFP plasmid using the Q5 mutagenesis kit (NEB).
as §5

Assay [3] relates to U87 glioblastoma cell line. The experiment in a line: 2D cell viability (cell titer blue), U87. The format is cell-based. The following applies: U87, 72 hours. As to the method:
(§6) Temozolomide is the standard of care for glioblastoma but only works on 30% of patients. Temozolomide sensitive U87 (FIG. 17A) and Temozolomide insensitive U138 (FIG. 17B) glioblastoma cell lines were plated in 96-well plates and exposed to increasing doses of either Temozolomide or OGM2. The viability of cells was assayed using cell titer blue after 72 hours, and data was normalized to DMSO vehicle control. See results in FIG. 17.

Assay [4] has as its system U138 glioblastoma cell line. The experiment in a line: 2D cell viability (cell titer blue), U138. Type of assay: cell-based. The following applies: U138, 72 hours. As to the method: as §6
For assay [5], the system named is U87 glioblastoma cell line. The assay is described as follows: 3D tumor spheroid growth, U87. The format is cell-based. The following applies: U87, 5 days of treatment. As to the method:
(§7) Tumor spheroid cultures are a more physiological model of tumor growth than typical 2D cell culture. Temozolomide sensitive U87 (FIG. 18A) and Temozolomide insensitive U138 (FIG. 18B) glioblastoma cell lines were plated in low attachment round bottom 96-well plates and allowed to form tumor spheroids for 3 days (T0). At T0, spheroids were imaged using Lionheart™ (HCS) High-Content Imaging Systems (Biotek™) and then were exposed to increasing doses of either Temozolomide or OGM2. After 5 days of treatment the spheroids were imaged again (T5). The size (area) of the spheroids after 5 days of treatment was quantified, and the average size of the spheroids at T0 is depicted in red.

For assay [6], the system named is U138 glioblastoma cell line. The assay is described as follows: 3D tumor spheroid growth, U138. The format is cell-based. As to conditions: U138, 5 days of treatment. As to the method: as §7
The next assay concerns U87 cells. The assay is described as follows: clonogenicity of U87 cells (crystal violet). Type of assay: cell-based. As to conditions: 0.1-2 uM, 12 days. As to the method:
U87 cells were plated at 400 cells per well in a 6-well plate and on the next day were treated with increasing concentrations of OGM2 for 12 days. The doses were 0 uM (DMSO control) 0.1 μM 0.5 uM, 1 uM, 1.5 uM and 2 uM, as labelled. The plate was fixed with formalin and stained with crystal violet.

Chain of 336X-GFP (Q15743 1-335): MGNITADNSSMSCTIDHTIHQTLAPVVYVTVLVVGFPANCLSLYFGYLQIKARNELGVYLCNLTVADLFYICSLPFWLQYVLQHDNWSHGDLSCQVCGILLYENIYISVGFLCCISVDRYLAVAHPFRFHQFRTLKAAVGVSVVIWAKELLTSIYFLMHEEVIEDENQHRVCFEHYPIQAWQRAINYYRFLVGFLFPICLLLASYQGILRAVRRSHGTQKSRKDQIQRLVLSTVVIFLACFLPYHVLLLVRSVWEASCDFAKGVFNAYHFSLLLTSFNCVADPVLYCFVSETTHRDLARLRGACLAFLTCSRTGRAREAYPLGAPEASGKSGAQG
Chain of GPR68-GFP (Q15743 whole entry): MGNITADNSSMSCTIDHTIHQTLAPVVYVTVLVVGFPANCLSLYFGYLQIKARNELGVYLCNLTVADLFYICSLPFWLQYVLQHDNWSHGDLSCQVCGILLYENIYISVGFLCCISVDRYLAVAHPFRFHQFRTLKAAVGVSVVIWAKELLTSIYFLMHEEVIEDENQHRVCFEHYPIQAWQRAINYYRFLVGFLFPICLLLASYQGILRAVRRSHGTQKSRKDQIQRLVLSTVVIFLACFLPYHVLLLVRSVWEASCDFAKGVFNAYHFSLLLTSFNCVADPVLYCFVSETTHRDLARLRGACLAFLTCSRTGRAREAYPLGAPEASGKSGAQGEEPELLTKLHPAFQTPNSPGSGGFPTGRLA

For `CCc1ccc2c(c1)C1(NN=C(c3cccc4ccccc34)S1)C(=O)N2` (stereo not drawn) [OGM, 5-ethyl-5′-naphthalen-1-ylspiro[1H-indole-3,2′-3H-1,3,4-thiadiazole]-2-one], in the assay on zebrafish embryo [1] (OGM 10 uM, 48 hours pf), the induced morphological phenotype entry was “induced ventral curvature, wavy notochord, shortened body axis, craniofacial defects, and loss of retinal iridophores”. The “time window of pigmentation defect” value with zebrafish embryo [1] (temporal phenotypic analysis, treatment windows 0-36 hours pf) is reported as “dependent on treatment during the 12 hours pf-18 hours pf time window”. In the assay with 158 GPCRs, the “agonist and antagonist activity against 158 GPCRs” value was “Only GPR68, LPA1 and GPR14 (UT2R) showed significant activity”. In addition, the “foxD3 staining of neural crest progenitors” value in the assay on zebrafish embryo [2] is “no difference”. The “migration in scratch assay” value with A2058 melanoma cell line, in the assay with MeWo melanoma cell line and with WM115 melanoma cell line was “inhibited migration” in each case. The “migration out of agarose drop” value in the assay with WM115 cells is “migrated significantly less”. Further, the SRE-luciferase activity result at GPR68-GFP and at 336X-GFP was “reduced the level of luciferase activity” each time. The “viability versus Temozolomide” value in [3] and in assay [4] was “more effective than Temozolomide” in each case. For the same compound, the “spheroid size versus Temozolomide” value in assay [5] and in assay [6] was “more effective than Temozolomide” in each case. The clonogenicity result with U87 cells is “Reduces Clonogenicity”.

Source of the values: US12194027B2, “Small molecule inhibitors of GPCR GPR68 and related receptors for treating cancer, glioblastoma, and other indications” (UNIVERSITY OF MARYLAND, BALTIMORE, priority 2019, dated 2025).
